Assay results: PMC8880132 (Molecules, 2022)
Like-named read-outs stand apart in the source and are kept apart here. Values belong to the compound of their own block, whether it stands above or below them.

Columns and labels:
[1] = Pharmacokinetic drug-drug interaction study in rats after oral administration; format: in vivo, SD (Sprague-Dawley) rats; settings: for Cmax / Tmax / half-life / AUC(0-inf) / AUC(0-t): male, Sprague-Dawley, rat, plasma, po; for Cmax / Tmax / half-life / AUC(0-inf) / AUC(0-t) / CLz / Vz: rat plasma; for Tmax: median (range); for half-life: read-out: t1/2z (converted)
Experimental: SPF (specific pathogen free)-grade male SD (Sprague-Dawley) rats (weight: 230 ± 10 g) were purchased from Beijing Weitong Lihua Experimental Animal Technology Co. Ltd. (Beijing, China). Before starting the experiment, the rats were given sufficient food and water and kept under suitable conditions for one week. Suitable conditions included suitable temperature (23–27 °C), suitable humidity (50 ± 10%), and 12-h light–12-h dark diurnal cycle. All animals were fasted for 12 h before the start of the experiment, but they were allowed to drink water freely. All the animal experimental protocols were conducted in accordance with the UK Animals (Scientific Procedures) Act 1986 and under the guideline approved by the Ethics Committee of Hebei General Hospital (Shijiazhuang, China; No. 2021131).
Twenty-four healthy rats were randomly and equally divided into four groups (six animals in each group). […] Approximately 0.3 mL of blood was collected from the orbital venous plexus in a heparinized centrifuge tube from each rat at 0.25, 0.5, 1, 2, 3, 4, 6, 8, 10, 12, 24, 48, 72, and 96 h after administration. […] The blood samples were collected from each rat at 0.17, 0.33, 0.5, 0.75, 1, 2, 3, 4, 6, 8, 10, 12, 24, 48, and 72 h after administration. Blood samples were centrifuged at 3500 rpm for 10 min, and the plasma samples (supernatant) were harvested and stored at −80 °C.
The main pharmacokinetic parameters are presented as mean ± standard deviation and statistically analyzed using SPSS 25.0 software package (SPSS Inc., Chicago, IL, USA). A p-value of <0.05 was considered statistically significant.

[2] = Stability of LEN and TEL in rat plasma under various storage conditions; format: in vitro ADME; settings: for Stability, measured concentration Mean ± SD / Stability, Accuracy (RE%) vs nominal concentration: rat plasma; for Stability, measured concentration Mean ± SD: n = 6
Experimental: QC samples with six replicates of each concentration were used to assess the stability of the samples under different processing and storage conditions. […] The long-term stability was carried out by freezing at −80 °C for 30 days, and the freeze–thaw stability was verified by repeatedly freezing and thawing three times.

[3] = tested on: breast cancer resistance protein (BCRP); settings: cited from earlier work
[4] = cited from earlier work
P-glycoprotein (P-gp) = settings: cited from earlier work
[5] = tested on: multidrug resistance-associated protein 2 (MRP2); settings: in vitro studies; cited from earlier work
[6] = cited from earlier work; remark: listed apart in the source
[7] = 1.2 mg/kg, LEN 1.2 mg/kg oral, alone
[8] = 1.2 mg/kg, LEN 1.2 mg/kg oral, with TEL (4 mg/kg)
[9] = LEN 1.2 mg/kg oral, with TEL (4 mg/kg)
[10] = autosampler for 24 h, high QC (800 ng/mL LEN, 400 ng/mL TEL)
[11] = autosampler for 24 h, low QC (0.5 ng/mL LEN, 0.25 ng/mL TEL)
[12] = freeze–thaw three times, high QC (800 ng/mL LEN, 400 ng/mL TEL)
[13] = freeze–thaw three times, low QC (0.5 ng/mL LEN, 0.25 ng/mL TEL)
[14] = freeze–thaw three times, medium QC (150 ng/mL LEN, 75 ng/mL TEL)
[15] = room temperature for 8 h, high QC (800 ng/mL LEN, 400 ng/mL TEL)
[16] = room temperature for 8 h, low QC (0.5 ng/mL LEN, 0.25 ng/mL TEL)
[17] = room temperature for 8 h, medium QC (150 ng/mL LEN, 75 ng/mL TEL)
[18] = −80 °C for 30 days, high QC (800 ng/mL LEN, 400 ng/mL TEL)
[19] = −80 °C for 30 days, low QC (0.5 ng/mL LEN, 0.25 ng/mL TEL)
[20] = −80 °C for 30 days, medium QC (150 ng/mL LEN, 75 ng/mL TEL)
[21] = TEL 4 mg/kg with LEN 1.2 mg/kg vs TEL alone, rats, oral
[22] = 4 mg/kg, TEL 4 mg/kg oral, alone
[23] = 4 mg/kg, TEL 4 mg/kg oral, with LEN (1.2 mg/kg)
[24] = autosampler for 24 h, medium QC (150 ng/mL LEN, 75 ng/mL TEL)

Cmax [1, 7]: 498 ± 107 ng/mL
Tmax [1, 7]: 2.5 h
half-life [1, 7]: 8.75 ± 2.55 h
AUC(0-inf) [1, 8]: 5860 ± 1350 ng·h/mL
AUC(0-t) [1, 8]: 5860 ± 1350 ng·h/mL
Cmax [1, 8]: 644 ± 211 ng/mL
half-life [1, 8]: 9.32 ± 4.69 h
CLz ([1]; LEN 1.2 mg/kg oral, alone): 3.5 ± 0.33 mL/min/kg
Vz ([1]; LEN 1.2 mg/kg oral, alone): 2.69 ± 0.79 L/kg
CLz [1, 9]: 3.67 ± 0.83 mL/min/kg
Vz [1, 9]: 2.92 ± 1.60 L/kg
Stability, measured concentration Mean ± SD [2, 10]: 835.67 ± 34.60 ng/mL
Stability, measured concentration Mean ± SD [2, 11]: 0.48 ± 0.03 ng/mL
Stability, measured concentration Mean ± SD [2, 12]: 787.50 ± 40.13 ng/mL
Stability, measured concentration Mean ± SD [2, 13]: 0.48 ± 0.05 ng/mL
Stability, measured concentration Mean ± SD [2, 14]: 150.17 ± 14.85 ng/mL
Stability, measured concentration Mean ± SD [2, 15]: 751.50 ± 19.74 ng/mL
Stability, measured concentration Mean ± SD [2, 16]: 0.52 ± 0.03 ng/mL
Stability, measured concentration Mean ± SD [2, 17]: 149.33 ± 11.15 ng/mL
Stability, measured concentration Mean ± SD [2, 18]: 808.00 ± 59.16 ng/mL
Stability, measured concentration Mean ± SD [2, 19]: 0.53 ± 0.05 ng/mL
Stability, measured concentration Mean ± SD [2, 20]: 154.00 ± 4.77 ng/mL
Structure (SMILES): COc1cc2nccc(Oc3ccc(NC(=O)NC4CC4)c(Cl)c3)c2cc1C(N)=O [LEN, Lenvatinib]
BCRP interaction [3]: substrate
water solubility [4]: poor water solubility
P-gp interaction (P-glycoprotein (P-gp)): substrate

Structure (SMILES): CCCc1nc2c(C)cc(-c3nc4ccccc4n3C)cc2n1Cc1ccc(-c2ccccc2C(=O)O)cc1 [TEL, Telmisartan]
AUC0–72h reduced by [1, 21]: 44.9%
AUC0–∞ reduced by [1, 21]: 41.3%
Cmax reduced by [1, 21]: 42.2%
Vz higher by [1, 21]: 97.1%
increase in CL [1, 21]: 69%
AUC(0-inf) [1, 22]: 4180 ± 1040 ng·h/mL
AUC(0-t) [1, 22]: 4150 ± 1040 ng·h/mL
Cmax [1, 22]: 171 ± 38 ng/mL
Tmax [1, 22]: 8 h
half-life [1, 22]: 9.36 ± 2.09 h
AUC(0-inf) [1, 23]: 2460 ± 544 ng·h/mL
AUC(0-t) [1, 23]: 2280 ± 322 ng·h/mL
Cmax [1, 23]: 99 ± 19.3 ng/mL
Tmax [1, 23]: 11 h
half-life [1, 23]: 12.4 ± 12.7 h
CLz ([1]; TEL 4 mg/kg oral, alone): 16.7 ± 3.5 mL/min/kg
CLz ([1]; TEL 4 mg/kg oral, with LEN (1.2 mg/kg)): 28.2 ± 5.83 mL/min/kg
Stability, Accuracy (RE%) vs nominal concentration [2, 10]: −0.38%
Stability, measured concentration Mean ± SD [2, 10]: 398.50 ± 22.76 ng/mL
Stability, Accuracy (RE%) vs nominal concentration [2, 11]: −4.33%
Stability, measured concentration Mean ± SD [2, 11]: 0.24 ± 0.02 ng/mL
Stability, Accuracy (RE%) vs nominal concentration [2, 24]: −1.76%
Stability, measured concentration Mean ± SD [2, 24]: 73.68 ± 1.59 ng/mL
Stability, Accuracy (RE%) vs nominal concentration [2, 12]: −2.17%
Stability, measured concentration Mean ± SD [2, 12]: 391.33 ± 25.73 ng/mL
Stability, Accuracy (RE%) vs nominal concentration [2, 13]: −0.47%
Stability, measured concentration Mean ± SD [2, 13]: 0.25 ± 0.01 ng/mL
Stability, Accuracy (RE%) vs nominal concentration [2, 14]: −3.53%
Stability, measured concentration Mean ± SD [2, 14]: 72.35 ± 2.51 ng/mL
Stability, Accuracy (RE%) vs nominal concentration [2, 15]: −7.58%
Stability, measured concentration Mean ± SD [2, 15]: 369.67 ± 6.98 ng/mL
Stability, Accuracy (RE%) vs nominal concentration [2, 16]: −3.53%
Stability, measured concentration Mean ± SD [2, 16]: 0.24 ± 0.01 ng/mL
Stability, Accuracy (RE%) vs nominal concentration [2, 17]: −2.36%
Stability, measured concentration Mean ± SD [2, 17]: 73.23 ± 5.40 ng/mL
Stability, Accuracy (RE%) vs nominal concentration [2, 18]: 0.38%
Stability, measured concentration Mean ± SD [2, 18]: 401.50 ± 27.46 ng/mL
Stability, Accuracy (RE%) vs nominal concentration [2, 19]: 1.80%
Stability, measured concentration Mean ± SD [2, 19]: 0.25 ± 0.01 ng/mL
Stability, Accuracy (RE%) vs nominal concentration [2, 20]: −0.36%
Stability, measured concentration Mean ± SD [2, 20]: 74.73 ± 1.64 ng/mL
stability of plasma samples ([2]; room temperature 8 h, autosampler 24 h after processing, −80 °C 30 days, freezing and thawing three times): stable
BCRP interaction ([3]; in vitro studies): substrate and inhibitor
MRP2 interaction [5]: substrate and inhibitor
water solubility ([4]; solubility is related to PH): poorly water-soluble
P-gp interaction (P-glycoprotein (P-gp); in vitro studies): substrate and inhibitor
half-life [6]: 24 h
